Literature values in US20020146829A1, “Neutral and anionic colloidal particles for gene delivery” (Aventis Pharmaceuticals Products Inc., priority 2000, published 2002).

Target: T1, folate receptor on M109 cells (Mus musculus, UniProt P35846)
T1 construct: endogenous in cells; host or cells: M109 cells
T1 sequence (P35846 25-232): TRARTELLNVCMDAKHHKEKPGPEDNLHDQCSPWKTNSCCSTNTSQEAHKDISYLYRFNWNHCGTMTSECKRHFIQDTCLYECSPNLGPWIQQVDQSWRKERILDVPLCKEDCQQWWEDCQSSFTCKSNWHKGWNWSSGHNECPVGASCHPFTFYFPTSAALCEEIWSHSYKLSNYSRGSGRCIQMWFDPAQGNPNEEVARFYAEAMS

distearyl-PEG400-Folate [RPR258018]
binding to folate receptor: specifically bind
